Test results reported in PubChem BioAssay (NCI).
Several values for one entry are separate records, joined by “and”; a condition that tells them apart may be missing. Equal values may be shown once.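 Briefly, cells in 96-well plates were exposed to five compound concentrations for 48 h, and endpoints were estimated by linear interpolation. GI50 = concentration required for 50% inhibition of growth. The concentration for full growth arrest is given as TGI.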

Columns and labels:
Assay in all cases: NCI-60 cell line screen, 48 h
[1] = system: 786-0 renal
[2] = system: A498 renal
[3] = system: A549 NSCLC
[4] = system: HCT-116 colon
[5] = system: KM12 colon
[6] = system: OVCAR-3 ovarian
[7] = system: OVCAR-4 ovarian
[8] = system: SR leukemia
[9] = system: SW-620 colon
[10] = system: U251 CNS

`COC(=O)C1=C(C)NC(C)=C(C(=O)OC)C1/C=C(Cl)/C=C/c1ccccc1` showed a GI50 [1] of 25.9 µM, a TGI [1] of 70.5 µM and a GI50 [2] of 16.8 µM. For the same compound, the TGI [2] was 36 µM, the GI50 [3] was 28.8 µM and the TGI [3] was > 100 µM. The GI50 [4] was 17.2 µM, the TGI [4] was 30.9 µM and the GI50 [5] was 18.4 µM. It also gave a TGI [5] of 39.5 µM, a GI50 [6] of 15.3 µM and a TGI [6] of 31.9 µM. For the same compound, the GI50 [7] was 30.4 µM, the TGI [7] was > 100 µM and the GI50 [8] was 19.5 µM. The TGI [8] was 38.5 µM, the GI50 [9] was 37.3 µM and the TGI [9] was > 100 µM. For the same compound, the GI50 [10] was 23 µM and the TGI [10] was 58.5 µM.

With `COc1ccc(OC)c(/C=C(/C)[N+](=O)[O-])c1` the GI50 [1] was 1.94 µM, the TGI [1] was 3.48 µM and the GI50 [2] was 8.24 µM. It also gave a TGI [2] of 20.9 µM, a GI50 [3] of 4.54 µM and a TGI [3] of 17.5 µM. The GI50 [4] was 1.88 µM, the TGI [4] was 3.54 µM and the GI50 [5] was 2.28 µM. For the same compound, the TGI [5] was 5.94 µM, the GI50 [6] was 1.81 µM and the TGI [6] was 3.27 µM. It also gave a GI50 [7] of 1.98 µM, a TGI [7] of 3.5 µM and a GI50 [8] of 0.316 µM. For the same compound, the TGI [8] was > 100 µM, the GI50 [9] was 1.79 µM and the TGI [9] was 3.78 µM. The GI50 [10] was 1.68 µM and the TGI [10] was 3.18 µM.

With `COc1cc2c3c(c1OC)-c1c(ccc4c1OCO4)CC3(C#N)N(C(=O)c1ccccc1)CC2` (centres undefined) the TGI [1] was > 100 µM, the TGI [2] was > 100 µM and the TGI [3] was > 100 µM. For the same compound, the TGI [4] was > 100 µM, the TGI [5] was > 100 µM and the TGI [6] was > 100 µM. For the same compound, the TGI [7] was 59 µM, the TGI [8] was > 100 µM and the TGI [9] was > 100 µM. For the same compound, the TGI [10] was > 100 µM.

In the case of `CC(=O)c1ccc(NC(=O)C(=O)Nn2c(=S)[nH]c3ccccc3c2=O)cc1`, the TGI [1] is reported as > 100 µM, the TGI [2] is reported as > 100 µM and the TGI [3] is reported as > 100 µM. The TGI [4] was > 100 µM, the TGI [5] was > 100 µM and the TGI [6] was > 100 µM. For the same compound, the TGI [7] was > 100 µM, the TGI [8] was > 100 µM and the TGI [9] was > 100 µM. For the same compound, the TGI [10] was > 100 µM.

`O=C(Nc1nc2ncn(CCNCc3ccccc3)c2c(=O)[nH]1)c1ccccc1` was tested, and the TGI [1] was > 100 µM, the TGI [2] was > 100 µM and the TGI [3] was > 100 µM. For the same compound, the TGI [4] was > 100 µM, the TGI [5] was > 100 µM and the TGI [6] was > 100 µM. For the same compound, the TGI [7] was > 100 µM, the TGI [8] was > 100 µM and the TGI [9] was > 100 µM. The TGI [10] was > 100 µM.

Compound `Cn1ccnc1C(=O)/C=C/c1ccccc1` has a GI50 [1] of 4.34 µM, a TGI [1] of 16.6 µM and a GI50 [2] of 5.05 µM. The TGI [2] was 17 µM, the GI50 [3] was 2.98 µM and the TGI [3] was 11.5 µM. The GI50 [4] was 2.72 µM, the TGI [4] was 12.2 µM and the GI50 [5] was 3.06 µM. For the same compound, the TGI [5] was 12.5 µM, the GI50 [6] was 3.22 µM and the TGI [6] was 8.5 µM. For the same compound, the GI50 [7] was 7.47 µM, the TGI [7] was 26 µM and the GI50 [8] was 1.38 µM. It also gave a TGI [8] of 6.05 µM, a GI50 [9] of 3.58 µM and a TGI [9] of 12.4 µM. It also gave a GI50 [10] of 3.21 µM and a TGI [10] of 13.9 µM.

`O=[N+]([O-])c1cccc(C2ON2C2CCCCC2)c1` (centres undefined) gave a TGI [1] of 31.2 µM, a TGI [2] of 90.1 µM and a TGI [3] of 84.5 µM. The TGI [4] was 26.3 µM, the TGI [5] was 21 µM and the TGI [6] was 34.6 µM. It also gave a TGI [7] of 38.3 µM, a TGI [8] of 7.81 µM and a TGI [9] of 24.7 µM. The TGI [10] was 14 µM.

For `COC(=O)CCCC(=O)O`, the TGI [1] was > 100 µM, the TGI [2] was > 100 µM and the TGI [3] was > 100 µM. The TGI [4] was > 100 µM, the TGI [5] was > 100 µM and the TGI [6] was > 100 µM. For the same compound, the TGI [7] was > 100 µM, the TGI [8] was > 100 µM and the TGI [9] was > 100 µM. The TGI [10] was > 100 µM.

Work on `CC(=Nc1ccccc1)C1=C(O)C(Cc2ccccc2)NC1=O` (centres undefined) yielded a GI50 [1] of 0.0586 µM, a GI50 [2] of 0.0307 µM and a TGI [2] of 0.259 µM. For the same compound, the GI50 [3] was 0.052 µM, the TGI [3] was > 100 µM and the GI50 [4] was 0.0363 µM. It also gave a TGI [4] of 0.51 µM, a GI50 [5] of 0.0278 µM and a TGI [5] of 0.266 µM. The GI50 [6] was 0.0237 µM, the TGI [6] was 0.0535 µM and the GI50 [7] was 0.115 µM. The TGI [7] was > 100 µM, the GI50 [8] was 0.0231 µM and the TGI [8] was > 30.9 µM. The GI50 [9] was 0.0328 µM, the TGI [9] was > 100 µM and the GI50 [10] was 0.0373 µM. The TGI [10] was > 37.2 µM.

`COC(=O)c1c(N)n[nH]c1N` was tested, and the TGI [1] was > 100 µM, the TGI [2] was > 100 µM and the TGI [3] was > 100 µM. The TGI [4] was > 100 µM, the TGI [5] was > 100 µM and the TGI [6] was > 100 µM. The TGI [7] was > 100 µM, the TGI [8] was > 100 µM and the TGI [9] was > 100 µM. The TGI [10] was > 100 µM.

In the case of `CCCCS(=O)(=O)CCC(N)C(=O)O` (centres undefined), the TGI [1] is reported as > 100 µM, the TGI [2] is reported as > 100 µM and the TGI [3] is reported as > 100 µM. For the same compound, the TGI [4] was > 100 µM, the TGI [5] was > 100 µM and the TGI [6] was > 100 µM. The TGI [7] was > 100 µM, the TGI [8] was > 100 µM and the TGI [9] was > 100 µM. For the same compound, the TGI [10] was > 100 µM.

For `CCC1CN2CCc3c([nH]c4ccccc34)C2C[C@@H]1CC(=O)N(C)C` (some centres undefined), the TGI [1] was > 100 µM, the TGI [2] was > 100 µM and the TGI [3] was > 100 µM. For the same compound, the TGI [4] was > 100 µM, the TGI [5] was > 100 µM and the TGI [6] was > 100 µM. For the same compound, the TGI [7] was > 100 µM, the TGI [8] was > 100 µM and the TGI [9] was > 100 µM. The TGI [10] was > 100 µM.

With `NC(=O)c1ccc2nc(-c3ccc(Oc4ccc(Cl)cc4)cc3)[nH]c2c1` the GI50 [1] was 48 µM and 16.1 µM, the TGI [1] was 75 µM and 39.4 µM and the GI50 [2] was 21.2 µM and 15.7 µM. The TGI [2] was 75 µM and 30.1 µM, the GI50 [3] was 49.8 µM and 10.4 µM and the TGI [3] was 75 µM and 28 µM. For the same compound, the GI50 [4] was 8.14 µM and 12.3 µM, the TGI [4] was 75 µM and 33.4 µM and the GI50 [5] was 65 µM and 13.9 µM. For the same compound, the TGI [5] was 75 µM and 31.3 µM, the GI50 [6] was 20.8 µM and 14.4 µM and the TGI [6] was 75 µM and 34.8 µM. The GI50 [7] was 41.7 µM and 11.4 µM, the TGI [7] was 75 µM and 31.1 µM and the GI50 [8] was 17.9 µM and 20.6 µM. The TGI [8] was 61.5 µM and 57.3 µM, the GI50 [9] was 23 µM and 9.61 µM and the TGI [9] was 75 µM and 25.9 µM. The GI50 [10] was 56.6 µM and 9.01 µM and the TGI [10] was 75 µM and 22.6 µM.
